Patent US12226425B2, “Inhibitors of ARG1 and/or ARG2” (Arcus Biosciences, Inc., priority 2018, dated 2025)

Molecular target: T1, recombinant human ARG1 (Homo sapiens, UniProt P05089)
T1 sequence (P05089 1-322): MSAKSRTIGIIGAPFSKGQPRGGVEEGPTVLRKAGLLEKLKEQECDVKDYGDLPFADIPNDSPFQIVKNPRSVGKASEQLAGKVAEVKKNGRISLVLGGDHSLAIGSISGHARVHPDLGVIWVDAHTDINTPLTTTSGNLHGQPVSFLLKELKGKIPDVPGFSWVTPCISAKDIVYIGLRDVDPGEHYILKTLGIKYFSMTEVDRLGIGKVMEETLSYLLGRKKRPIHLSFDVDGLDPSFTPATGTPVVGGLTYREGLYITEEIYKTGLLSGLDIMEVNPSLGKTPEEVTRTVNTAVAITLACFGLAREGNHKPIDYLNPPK
Experiment: Arginase coupled enzymatic assay using recombinant human ARG1
Assay type: biochemical
Conditions: 2 nM ARG1, 0.8 mM L-Arginine, 10 mM sodium phosphate pH 7.4, 0.1 mM MnCl2, 37° C., absorption at 570 nm; read-out: hARG1 potency (IC50)
Protocol: Purified recombinant human ARG1 and ARG2 were prepared in 50 mM Bicine, pH 8.5, 100 μM MnCl2, 20% glycerol and 1mM DTT at a final stock concentration of 14.4 μM and 7.56 μM respectively. 2.5 nM of either ARG1 or ARG2 were incubated with varying concentrations of compounds in 10 mM sodium phosphate, pH 7.4, 0.1 mM MnCl2 and 2.5% DMSO in a total volume of 40 μl in a 384-well microplate (Corning™ #3640) at 37° C. for 1 h. The arginase enzymatic reaction was initiated by addition of 10 μl of 4 mM L-Arginine pre-incubated in 10 mM sodium phosphate, pH 7.4, and 0.1 mM MnCl2 at 37° C. into the enzyme and compound mixture, giving the final reaction conditions: 2 nM of ARG1 or ARG2 and 0.8 mM of L-Arginine in 10 mM sodium phosphate, pH 7.4, 0.1 mM MnCl2 and 2% DMSO with varying concentrations of compounds. Following 2 h incubation at 37° C., the arginase enzymatic reaction was stopped by transfer of 10 μl of reaction into 10 μl of detection mix (204 μM Amino-2-Borono-6-Hexanoic Acid, 0.25 μl Arginase Enzyme mix, 0.25 μl Arginase Developer, 0.25 μl Arginase Converter Enzyme in Arginase Assay Buffer from Arginase Activity Colorimetric Assay Kit, BioVision Inc. #K755-100) in a transparent 384-well microplate (Greiner #781801). The plate was immediately put into a plate reader (Synergy™ Neo2 Multi-Mode Microplate Reader) to monitor absorption at 570 nm at 37° C. Absorption values at 12˜20 min were used to calculate compound potency. The value of the DMSO blank (MIN inhibition=100% activity) was used as a negative control. The positive control was established by adding 8 μl of enzyme and DMSO mix into 10 μl of detection mix followed by addition of 2 μl of L-Arginine (MAX inhibition=0% activity). To calculate the percent activity, Equation 1 was used. Abs570nm is the value at a given compound concentration:
A counter-screen was performed to identify any inhibition of the coupling enzymes by the test compounds. 10 μl of 0.26 mM of urea with varying concentrations of compounds in 10 mM sodium phosphate, pH 7.4, 0.1 mM MnCl2 and 2% DMSO were added into 10 μl of detection mix in place of the arginase enzymatic reaction mix. Absorption was monitored at 570 nm as described above. The values of a no substrate blank (without urea; MAX inhibition=0% activity) and a DMSO blank (MIN inhibition=100% activity) were used as positive and negative controls respectively. […] Inactivity in the counter-screen was used to confirm that results accurately reflected IC50 values for ARG1 and ARG2.

IC50 [nM] | SMILES
< 100 | CN[C@@]1(C(=O)O)c2cc(C3(C(C)(C)N)CCC3)c(F)cc2C[C@@H]1CCCB(O)O
< 100 | CC[C@@H](N)c1cc2c(cc1F)C[C@H](CCCB(O)O)[C@]2(NC)C(=O)O
< 100 | CC[C@@](C)(N)c1cc2c(cc1F)C[C@H](CCCB(O)O)[C@]2(NC)C(=O)O
< 100 | CN[C@@]1(C(=O)O)c2cc([C@@H](N)C3CC3)c(F)cc2C[C@@H]1CCCB(O)O
< 100 | CN[C@@]1(C(=O)O)c2cc([C@@H](N)C(C)C)c(F)cc2C[C@@H]1CCCB(O)O
< 100 | CN[C@@]1(C(=O)O)c2cc(CN3CCCC3(C)C)c(F)cc2C[C@@H]1CCCB(O)O
< 100 | CNCc1cc2c(cc1Cl)C[C@H](CCCB(O)O)[C@]2(NC)C(=O)O
< 100 | CNCc1cc2c(cc1F)C[C@H](CCCB(O)O)[C@]2(NC)C(=O)O
< 100 | CN[C@@]1(C(=O)O)c2cc([C@H](N)C(C)C)c(F)cc2C[C@@H]1CCCB(O)O
< 100 | CN[C@@]1(C(=O)O)c2cc(Cl)c(CN)cc2C[C@@H]1CCCB(O)O
< 100 | CN[C@@]1(C(=O)O)c2cc(C(C)(C)C(C)(C)N)c(F)cc2C[C@@H]1CCCB(O)O
< 100 | CN[C@@]1(C(=O)O)c2cc([C@@H]3CCCN3)c(F)cc2C[C@@H]1CCCB(O)O
< 100 | CN[C@@]1(C(=O)O)c2cc(-c3cccc(F)c3C(C)(C)N)c(F)cc2C[C@@H]1CCCB(O)O
< 100 | CC[C@H](N)c1cc2c(cc1Cl)C[C@H](CCCB(O)O)[C@]2(NC)C(=O)O
< 100 | CN[C@@]1(C(=O)O)c2cc(CN3CCCCC3(C)C)c(F)cc2C[C@@H]1CCCB(O)O
< 100 | CN[C@@]1(C(=O)O)c2cc([C@H](C)N)c(OC)cc2C[C@@H]1CCCB(O)O
< 100 | CN[C@@]1(C(=O)O)c2cc(C(C)(C)N)c(Cl)cc2C[C@@H]1CCCB(O)O
< 100 | CC[C@H](N)c1cc2c(cc1F)C[C@H](CCCB(O)O)[C@]2(NC)C(=O)O
100 to 1000 | CN[C@@]1(C(=O)O)c2c(F)cc(CN)cc2C[C@@H]1CCCB(O)O
< 100 | CN[C@@]1(C(=O)O)c2cc(C3(N)CCCCC3)c(F)cc2C[C@@H]1CCCB(O)O
< 100 | CN[C@@]1(C(=O)O)c2cc(CNC3CC3)c(F)cc2C[C@@H]1CCCB(O)O
100 to 1000 | CN[C@@]1(C(=O)O)c2cc(-c3ncccc3C)c(F)cc2C[C@@H]1CCCB(O)O
< 100 | CC[C@](C)(N)c1cc2c(cc1F)C[C@H](CCCB(O)O)[C@]2(NC)C(=O)O
< 100 | CCC(N)(CC)c1cc2c(cc1F)C[C@H](CCCB(O)O)[C@]2(NC)C(=O)O
< 100 | CN[C@@]1(C(=O)O)c2cc([C@H]3CCCN3)c(F)cc2C[C@@H]1CCCB(O)O

The next lines start with the compound.

SMILES | IC50 [nM]
NCCc1cc2c(cc1Cl)C[C@H](CCCB(O)O)[C@]2(N)C(=O)O | < 100
N[C@@]1(C(=O)O)c2cccc(CO)c2C[C@@H]1CCCB(O)O | > 1000
CN[C@@]1(C(=O)O)c2cc(O[C@@H]3CCC[C@H]3N)c(F)cc2C[C@@H]1CCCB(O)O | < 100
CN(C)[C@@]1(C(=O)O)c2cc(CN)ccc2C[C@@H]1CCCB(O)O | 100 to 1000
N#Cc1cccc2c1C[C@H](CCCB(O)O)[C@]2(N)C(=O)O | > 1000
N[C@@]1(C(=O)O)c2ccccc2C[C@@H]1CCCB(O)O | 100 to 1000
CN[C@@]1(C(=O)O)c2cc([C@H](N)C3CC3)c(Cl)cc2C[C@@H]1CCCB(O)O | < 100
CN[C@@]1(C(=O)O)c2cc(CNC3CCCC3)c(F)cc2C[C@@H]1CCCB(O)O | < 100
NCCc1ccc2c(c1)[C@@](N)(C(=O)O)[C@@H](CCCB(O)O)C2 | < 100
CN[C@@]1(C(=O)O)c2cc(-c3cc(F)ccc3CN)c(F)cc2C[C@@H]1CCCB(O)O | < 100
CN[C@@]1(C(=O)OC)c2cc(CN)c(Cl)cc2C[C@@H]1CCCB(O)O | 100 to 1000
NCCc1ccc2c(c1)C[C@H](CCCB(O)O)[C@]2(N)C(=O)O | 100 to 1000
Cc1ccc2c(c1)[C@@](N)(C(=O)O)[C@@H](CCCB(O)O)C2 | > 1000
CCN[C@@]1(C(=O)O)c2cc(OC)c(CN)cc2C[C@@H]1CCCB(O)O | 100 to 1000
CN[C@@]1(C(=O)O)c2cc(Nc3ccccn3)c(F)cc2C[C@@H]1CCCB(O)O | 100 to 1000
CN[C@@]1(C(=O)O)c2cc(C3(N)CCC3)ccc2C[C@@H]1CCCB(O)O | < 100
CN[C@@]1(C(=O)O)c2cccc(CN)c2C[C@@H]1CCCB(O)O | < 100
CNCc1cccc2c1C[C@H](CCCB(O)O)[C@]2(NC)C(=O)O | 100 to 1000
CN[C@@]1(C(=O)O)c2cc(CN3CCC[C@H]3C(=O)O)c(F)cc2C[C@@H]1CCCB(O)O | 100 to 1000
CN[C@@]1(C(=O)O)c2cc(C3CCNCC3)c(F)cc2C[C@@H]1CCCB(O)O | < 100
CN[C@@]1(C(=O)O)c2cccc(OC)c2C[C@@H]1CCCB(O)O | > 1000
CN[C@@]1(C(=O)O)c2cc(-c3ccccc3CCN)c(F)cc2C[C@@H]1CCCB(O)O | < 100
CN[C@@]1(C(=O)O)c2cc(-c3ncccc3N)c(F)cc2C[C@@H]1CCCB(O)O | 100 to 1000
CN[C@@]1(C(=O)O)c2cc(CN3CCC(c4ccccc4)CC3)c(F)cc2C[C@@H]1CCCB(O)O | < 100
NCc1ccc2c(c1)C[C@H](CCCB(O)O)[C@]2(N)C(=O)O | < 100
CN[C@@]1(C(=O)O)c2cc(C3(N)CCC3)c(Cl)cc2C[C@@H]1CCCB(O)O | < 100
C[C@]1(CCCB(O)O)Cc2ccccc2[C@@]1(N)C(=O)O | > 1000
CN[C@@]1(C(=O)O)c2cc([C@H](N)C(F)(F)F)ccc2C[C@@H]1CCCB(O)O | 100 to 1000
